Holding throughout (assay type): biochemical
The target of assay [1] is T1, orotidine 5′-monophosphate decarboxylase (OMPDC) (Saccharomyces cerevisiae, UniProt P03962, S2H/C155S/A160S/N267D).
T1 sequence (P03962 2-267 S2H/C155S/A160S/N267D): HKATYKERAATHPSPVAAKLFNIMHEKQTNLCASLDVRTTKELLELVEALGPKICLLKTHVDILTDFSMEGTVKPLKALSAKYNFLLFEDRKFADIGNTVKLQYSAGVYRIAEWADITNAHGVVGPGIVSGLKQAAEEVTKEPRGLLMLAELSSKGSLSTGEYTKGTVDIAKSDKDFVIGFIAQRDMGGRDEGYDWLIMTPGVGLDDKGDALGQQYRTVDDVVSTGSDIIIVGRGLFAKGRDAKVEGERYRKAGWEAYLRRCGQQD

Assay [2] concerns the target T1, orotidine 5′-monophosphate decarboxylase (OMPDC). This is another data set of the same source.
In assay [3] the target is T2, orotidine 5′-monophosphate decarboxylase (OMPDC) (Saccharomyces cerevisiae, UniProt P03962, A160S/C155S/N267D/S2H).
T2 sequence (P03962 2-267 S2H/C155S/A160S/N267D): T1 sequence (P03962 2-267 S2H/C155S/A160S/N267D)
Description: activation of FEO decarboxylation by added phosphite, nonlinear fit to eq […].

With `C[C@H]1O[C@@H](n2c(C(=O)O)c(F)c(=O)[nH]c2=O)[C@H](O)[C@@H]1O` [5′-dFO, 5′-Deoxy-5-fluoroorotidine], the “HPLC initial-velocity decarboxylation assay, purified yeast OMPDC, with and with” value in assay [1] is given as 0.078 M^−1 s^−1 (kcat/Km). Turning to `O=C(O)c1c(F)c(=O)[nH]c(=O)n1[C@@H]1OC[C@@H](O)[C@H]1O` [FEO, 1-(β-D-Erythrofuranosyl)-5-fluoroorotic acid], the “spectrophotometric decarboxylation assay at 282 nm, purified yeast OMPDC, with a” value in assay [2] is on record as 10 M^−1 s^−1 (kcat/Km). As a reminder, the Kd is the concentration at which binding is half-saturated. Low values mean a tighter complex, high ones a looser complex. `O=[PH](O)O` [HPO3^2−, phosphite dianion] returned a Kd in assay [3] of 100 mM.

The record behind these values is publication PMC3556479 (Biochemistry, 2013).
